Data: patent publication US20260028365A1 (BIOGEN MA INC., priority 2022, published 2026)
Structures can show the parent of a compound that is named as a salt. Where two headings read alike, the source gives them in different places.

How the values were obtained:
JH2 domain of human Tyk2 = JH2 domain of human Tyk2 (Homo sapiens (Human), UniProt P29597); assay: JH2 Biochemical Assay (TR-FRET probe displacement); format: binding
Tyk2 = Tyk2 (Homo sapiens (Human), UniProt P29597); assay: pSTAT4 Cell Assay (MSD, NK92 cells); format: cell-based
JAK1 = JAK1 (Homo sapiens (Human), UniProt P23458); assay: pSTAT3 Cell Assay (MSD, TF1 cells); format: cell-based
Description: The inhibitory potency of compounds of the disclosure against the JAK1 kinase activity on STAT3 was evaluated using an MSD-platform plate-based assay format. TF1 cells natively expressing STAT3 and JAK1 were serum-starved to reduce background phosphorylation levels, then cells were treated with compounds of the disclosure for 1 hour with a 10-point four-fold dilution series starting at 10 μM. Cells were then stimulated with 30 ng/mL interleukin 6 (IL-6) for 15 minutes. Cells were lysed and pSTAT3 levels were quantitated using an MSD plate-based assay with anti-STAT3 antibodies. The data were normalized and the percent activity versus log concentration of compound was fitted with a 4-parameter logistic model to generate IC50 curves.

[1] = TR-FRET probe displacement, JH2 domain
[2] = TR-FRET probe displacement, JH2 domain of human Tyk2
[3] = JH2 domain of human Tyk2, TR-FRET probe displacement

Chain of Tyk2 (P29597 whole entry): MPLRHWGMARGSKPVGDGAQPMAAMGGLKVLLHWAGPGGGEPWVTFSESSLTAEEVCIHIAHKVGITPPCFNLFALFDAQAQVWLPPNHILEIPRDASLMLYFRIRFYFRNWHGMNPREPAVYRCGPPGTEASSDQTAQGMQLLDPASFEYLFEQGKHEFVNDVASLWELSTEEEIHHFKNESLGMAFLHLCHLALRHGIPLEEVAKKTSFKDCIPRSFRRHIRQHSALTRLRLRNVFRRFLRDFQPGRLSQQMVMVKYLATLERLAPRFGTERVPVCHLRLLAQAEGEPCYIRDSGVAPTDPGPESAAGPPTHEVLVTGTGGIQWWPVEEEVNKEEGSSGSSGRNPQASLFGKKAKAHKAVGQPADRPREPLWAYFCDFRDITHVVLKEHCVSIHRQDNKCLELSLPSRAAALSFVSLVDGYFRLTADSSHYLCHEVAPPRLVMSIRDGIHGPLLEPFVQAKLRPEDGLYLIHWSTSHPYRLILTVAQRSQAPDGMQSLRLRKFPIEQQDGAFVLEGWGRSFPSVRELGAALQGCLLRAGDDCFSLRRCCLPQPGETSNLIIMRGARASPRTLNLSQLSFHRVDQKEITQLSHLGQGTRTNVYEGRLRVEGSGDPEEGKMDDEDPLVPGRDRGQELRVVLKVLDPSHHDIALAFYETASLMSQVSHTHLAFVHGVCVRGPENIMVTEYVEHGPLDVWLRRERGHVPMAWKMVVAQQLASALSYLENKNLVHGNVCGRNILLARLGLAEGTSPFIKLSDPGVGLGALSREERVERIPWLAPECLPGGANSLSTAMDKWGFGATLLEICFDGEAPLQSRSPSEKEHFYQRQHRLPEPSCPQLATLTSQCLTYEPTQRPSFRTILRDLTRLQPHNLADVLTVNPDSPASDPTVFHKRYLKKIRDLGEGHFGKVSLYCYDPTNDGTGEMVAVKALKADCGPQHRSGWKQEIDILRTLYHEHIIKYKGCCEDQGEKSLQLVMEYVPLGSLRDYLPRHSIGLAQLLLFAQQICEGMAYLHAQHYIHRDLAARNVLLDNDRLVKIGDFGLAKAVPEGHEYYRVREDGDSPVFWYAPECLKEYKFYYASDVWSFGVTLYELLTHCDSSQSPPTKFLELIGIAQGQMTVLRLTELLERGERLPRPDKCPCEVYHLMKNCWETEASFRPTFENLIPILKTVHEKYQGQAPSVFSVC
Chain of JH2 domain of human Tyk2 (P29597 575-876): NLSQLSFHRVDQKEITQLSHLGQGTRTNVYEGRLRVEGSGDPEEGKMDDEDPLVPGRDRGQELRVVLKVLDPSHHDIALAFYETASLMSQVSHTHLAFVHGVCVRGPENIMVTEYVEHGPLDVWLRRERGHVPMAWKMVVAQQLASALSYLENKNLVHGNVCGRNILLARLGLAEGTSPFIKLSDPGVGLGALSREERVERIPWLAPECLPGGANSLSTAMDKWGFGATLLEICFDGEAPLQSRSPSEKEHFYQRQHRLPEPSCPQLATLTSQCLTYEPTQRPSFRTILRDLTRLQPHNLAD
Chain of JAK1 (P23458 whole entry): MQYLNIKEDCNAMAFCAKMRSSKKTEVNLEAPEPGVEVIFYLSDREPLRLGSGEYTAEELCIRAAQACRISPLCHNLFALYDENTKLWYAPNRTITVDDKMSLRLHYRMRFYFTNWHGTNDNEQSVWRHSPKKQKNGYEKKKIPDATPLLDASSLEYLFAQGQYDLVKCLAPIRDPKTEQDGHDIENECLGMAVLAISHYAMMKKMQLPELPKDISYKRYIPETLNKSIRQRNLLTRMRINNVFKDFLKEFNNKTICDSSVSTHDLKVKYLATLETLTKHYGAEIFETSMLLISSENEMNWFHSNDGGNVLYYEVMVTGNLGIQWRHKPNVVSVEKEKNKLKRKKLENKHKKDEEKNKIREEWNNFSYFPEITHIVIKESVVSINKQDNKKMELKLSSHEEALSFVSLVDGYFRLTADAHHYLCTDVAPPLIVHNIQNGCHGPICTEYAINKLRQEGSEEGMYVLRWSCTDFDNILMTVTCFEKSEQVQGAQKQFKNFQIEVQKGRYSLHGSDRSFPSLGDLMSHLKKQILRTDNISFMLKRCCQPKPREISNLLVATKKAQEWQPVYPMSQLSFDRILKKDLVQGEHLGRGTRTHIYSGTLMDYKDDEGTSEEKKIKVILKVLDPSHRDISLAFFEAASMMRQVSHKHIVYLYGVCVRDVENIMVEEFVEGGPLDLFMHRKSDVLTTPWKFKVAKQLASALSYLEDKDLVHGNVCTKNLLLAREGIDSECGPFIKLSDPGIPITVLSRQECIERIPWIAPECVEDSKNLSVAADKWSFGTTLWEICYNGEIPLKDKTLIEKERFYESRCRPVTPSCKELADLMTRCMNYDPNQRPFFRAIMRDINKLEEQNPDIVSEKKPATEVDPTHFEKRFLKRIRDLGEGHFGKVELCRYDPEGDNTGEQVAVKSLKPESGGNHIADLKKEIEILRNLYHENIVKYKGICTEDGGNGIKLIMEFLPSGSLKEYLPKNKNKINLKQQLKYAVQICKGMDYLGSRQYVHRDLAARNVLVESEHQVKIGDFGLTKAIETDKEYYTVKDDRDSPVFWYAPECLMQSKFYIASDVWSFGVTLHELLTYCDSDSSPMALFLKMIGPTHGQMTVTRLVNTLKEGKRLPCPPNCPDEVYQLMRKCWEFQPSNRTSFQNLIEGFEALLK

SMILES	IC50 (JH2 domain of human Tyk2; [1])	IC50 (Tyk2)	IC50 (Tyk2; MSD)	other results
CC(=O)Nc1cc(Nc2cc(C)nc(C(C)(F)F)n2)c(-c2cn3c(n2)COCC3)cn1 [Example 768, N-(4-((2-(1,1-difluoroethyl)-6-methylpyrimidin-4-yl)amino)-5-(5,6-dihydrO8H-imidazo[2,1-c][1,4]oxazin-2-yl)pyridin-2-yl)acetamide]	≤ 10 nM	≤ 10 nM	–	IC50 (JAK1; IL-6 stimulated): ≥ 1000 nM
CCc1cc(Nc2cc(NC(C)=O)ncc2-c2cc(C(F)F)ncn2)nc(C(C)(F)F)n1 [Example 891, N-(4-((2-(1,1-difluoroethyl)-6-ethylpyrimidin-4-yl)amino)-5-(6-(difluoromethyl)pyrimidin-4-yl)pyridin-2-yl)acetamide]	≤ 10 nM	≤ 10 nM	–	IC50 (JAK1; IL-6 stimulated): ≥ 1000 nM
CC(=O)Nc1cc(Nc2cc(C)nc(C(C)(F)F)n2)c(-c2ccc(N3CCN(C)CC3)cn2)cn1 [Example 651, N-(4′-((2-(1,1-difluoroethyl)-6-methylpyrimidin-4-yl)amino)-5-(4-methylpiperazin-1-yl)-[2,3′-bipyridin]-6′-yl)acetamide]	–	–	≤ 10 nM	IC50 (JAK1; IL-6 stimulated, MSD): ≥ 1000 nM
COCCc1nnc(-c2cnc(NC(C)=O)cc2Nc2cc(C)nc(C(C)(F)F)n2)s1 [Example 754, N-(4-((2-(1,1-difluoroethyl)-6-methylpyrimidin-4-yl)amino)-5-(5-(2-methoxyethyl)-1,3,4-thiadiazol-2-yl)pyridin-2-yl)acetamide]	≤ 10 nM	≤ 10 nM	–	IC50 (JAK1; IL-6 stimulated): ≥ 1000 nM
CC(=O)Nc1cc(Nc2cc(C)nc(C34COC(C3)C4)n2)c(-c2ccncn2)cn1 [Example 748, N-(4-((2-(2-oxabicyclo[2.1.1]hexan-4-yl)-6-methylpyrimidin-4-yl)amino)-5-(pyrimidin-4-yl)pyridin-2-yl)acetamide]	≤ 10 nM	≤ 10 nM	–	IC50 (JAK1; IL-6 stimulated): ≥ 1000 nM
CC(=O)Nc1cc(Nc2ccnc(C(C)(F)F)n2)c(-c2cn3c(n2)CCCC3)cn1 [Example 780, N-(4-((2-(1,1-difluoroethyl)pyrimidin-4-yl)amino)-5-(5,6,7,8-tetrahydroimidazo[1,2-a]pyridin-2-yl)pyridin-2-yl)acetamide]	≤ 10 nM	≤ 10 nM	–	IC50 (JAK1; IL-6 stimulated): ≥ 1000 nM
CC(=O)Nc1cc(Nc2cc(C)nc(C(C)(F)F)n2)c(-c2cnc(C(F)F)cn2)cn1 [Example 921, N-(4-((2-(1,1-difluoroethyl)-6-methylpyrimidin-4-yl)amino)-5-(5-(difluoromethyl)pyrazin-2-yl)pyridin-2-yl)acetamide]	≤ 10 nM	10 to 100 nM	–	IC50 (JAK1; IL-6 stimulated): ≥ 1000 nM
COc1ccc(-c2cnc(NC(C)=O)cc2Nc2ccnc(C(C)(F)F)n2)nn1 [Example 214, N-(4-((2-(1,1-difluoroethyl)pyrimidin-4-yl)amino)-5-(6-methoxypyridazin-3-yl)pyridin-2-yl)acetamide trifluoroacetate]	–	–	≤ 10 nM	IC50 (JH2 domain of human Tyk2; [2]): ≤ 10 nM; IC50 (JAK1; IL-6 stimulation, MSD): ≥ 1000 nM
CC(=O)Nc1cc(Nc2cc(C)nc(C(C)(F)F)n2)c(C(F)(F)C2CC2)cn1 [Example 153, N-(5-(cyclopropyldifluoromethyl)-4-((2-(1,1-difluoroethyl)-6-methylpyrimidin-4-yl)amino)pyridin-2-yl)acetamide]	–	–	≤ 10 nM	IC50 (JH2 domain of human Tyk2; [2]): ≤ 10 nM; IC50 (JAK1; IL-6 stimulation, MSD): ≥ 1000 nM
CNc1ccc(-c2cnc(NC(C)=O)cc2Nc2ccnc(C(C)(F)F)n2)nc1 [Example 857, N-(4′-((2-(1,1-difluoroethyl)pyrimidin-4-yl)amino)-5-(methylamino)-[2,3′-bipyridin]-6′-yl)acetamide]	≤ 10 nM	≤ 10 nM	–	IC50 (JAK1; IL-6 stimulated): ≥ 1000 nM
CC(=O)Nc1cc(Nc2ccnc(C(C)(F)F)n2)c(-c2ccc(CN3CCOC[C@H]3C)cn2)cn1 [Example 880, (R)-N-(4′-((2-(1,1-difluoroethyl)pyrimidin-4-yl)amino)-5-((3-methylmorpholino)methyl)-[2,3′-bipyridin]-6′-yl)acetamide]	≤ 10 nM	≤ 10 nM	–	–
COC(C)(C)Cn1ccc(-c2cnc(NC(C)=O)cc2Nc2cc(C)nc(C(C)(F)F)n2)n1 [Example 230, N-(4-((2-(1,1-difluoroethyl)-6-methylpyrimidin-4-yl)amino)-5-(1-(2-methoxy-2-methylpropyl)-1H-pyrazol-3-yl)pyridin-2-yl)acetamide]	–	–	≤ 10 nM	IC50 (JH2 domain of human Tyk2; [2]): ≤ 10 nM
CCOc1cnc(NC(C)=O)cc1Nc1cc(OC2CC(C#N)C2)nc(C(C)(F)F)n1 (centres unmarked) [Example 463, N-(4-((6-(3-cyanocyclobutoxy)-2-(1,1-difluoroethyl)pyrimidin-4-yl)amino)-5-ethoxypyridin-2-yl)acetamide]	–	–	≤ 10 nM	IC50 (JH2 domain of human Tyk2; [3]): ≤ 10 nM
COCc1cnc(-c2cnc(NC(C)=O)cc2Nc2cc(C)nc(C(C)(F)F)n2)nc1 [Example 672, N-(4-((2-(1,1-difluoroethyl)-6-methylpyrimidin-4-yl)amino)-5-(5-(methoxymethyl)pyrimidin-2-yl)pyridin-2-yl)acetamide]	–	–	≤ 10 nM	IC50 (JH2 domain of human Tyk2; [3]): ≤ 10 nM
COc1cnc(NC(C)=O)cc1Nc1cc(-c2ccncc2F)nc(C(C)(F)F)n1 [Example 373, N-(4-((2-(1,1-difluoroethyl)-6-(3-fluoropyridin-4-yl)pyrimidin-4-yl)amino)-5-methoxypyridin-2-yl)acetamide]	–	–	10 to 100 nM	IC50 (JH2 domain of human Tyk2; [3]): ≤ 10 nM
CCc1cc(Nc2cc(NC(C)=O)ncc2-c2ccc(=O)n(C)n2)nc(C(C)(F)F)n1 [Example 831, N-(4-((2-(1,1-difluoroethyl)-6-ethylpyrimidin-4-yl)amino)-5-(1-methyl-6-oxo-1,6-dihydropyridazin-3-yl)pyridin-2-yl)acetamide]	≤ 10 nM	≤ 10 nM	–	–
CC(=O)Nc1cc(Nc2nccc(C(C)(F)F)n2)c(-c2ccn(C)n2)cn1 [Example 203, N-(4-((4-(1,1-difluoroethyl)pyrimidin-2-yl)amino)-5-(1-methyl-1H-pyrazol-3-yl)pyridin-2-yl)acetamide]	–	–	≤ 10 nM	IC50 (JH2 domain of human Tyk2; [2]): ≤ 10 nM
CC(=O)Nc1cc(Nc2cc(C)nc(C(C)(F)F)n2)c(OC[C@@H]2CCN(C3CC3)C2)cn1 [Example 494, (R)-N-(5-((1-cyclopropylpyrrolidin-3-yl)methoxy)-4-((2-(1,1-difluoroethyl)-6-methylpyrimidin-4-yl)amino)pyridin-2-yl)acetamide]	–	–	10 to 100 nM	IC50 (JH2 domain of human Tyk2; [3]): ≤ 10 nM
CC(=O)Nc1cc(Nc2ccnc(C(C)(F)F)n2)c(-c2ccc(CN3C[C@H]4C[C@@H]3CO4)cn2)cn1 (racemic) [Example 884, rac-N-(5-(((1R,4R)-2-oxa-5-azabicyclo[2.2.1]heptan-5-yl)methyl)-4′-((2-(1,1-difluoroethyl)pyrimidin-4-yl)amino)-[2,3′-bipyridin]-6′-yl)acetamide]	≤ 10 nM	≤ 10 nM	–	–
CCOc1cnc(NC(C)=O)cc1Nc1cc(C)nc(C(F)(F)CC)n1 [Example 516, N-(4-((2-(1,1-difluoropropyl)-6-methylpyrimidin-4-yl)amino)-5-ethoxypyridin-2-yl)acetamide]	–	–	100 to 1000 nM	IC50 (JH2 domain of human Tyk2; [3]): ≤ 10 nM
CCn1cc(-c2cc(Nc3cc(NC(C)=O)ncc3OC)nc(C(C)(F)F)n2)cn1 [Example 97, N-(4-((2-(1,1-difluoroethyl)-6-(1-ethyl-1H-pyrazol-4-yl)pyrimidin-4-yl)amino)-5-methoxypyridin-2-yl)acetamide]	–	–	10 to 100 nM	IC50 (JH2 domain of human Tyk2; [2]): 10 to 100 nM
CCn1ncc(-c2cnc(NC(C)=O)cc2Nc2ccnc(C(C)(F)F)n2)n1 [Example 709, N-(4-((2-(1,1-difluoroethyl)pyrimidin-4-yl)amino)-5-(2-ethyl-2H-1,2,3-triazol-4-yl)pyridin-2-yl)acetamide]	–	–	10 to 100 nM	IC50 (JH2 domain of human Tyk2; [3]): ≤ 10 nM
CC(=O)Nc1cc(Nc2cc(C)nc(C(C)(F)F)n2)c(-c2cc(NC(C)C)cnn2)cn1 [Example 254, N-(4-((2-(1,1-difluoroethyl)-6-methylpyrimidin-4-yl)amino)-5-(5-(isopropylamino)pyridazin-3-yl)pyridin-2-yl)acetamide]	–	–	≤ 10 nM	IC50 (JH2 domain of human Tyk2; [2]): ≤ 10 nM
CC(=O)Nc1cc(Nc2cc(C)nc(C(C)(F)F)n2)c(-c2cnn(C)c2)cn1 [Example 812, N-(4-((2-(1,1-difluoroethyl)-6-methylpyrimidin-4-yl)amino)-5-(1-methyl-1H-pyrazol-4-yl)pyridin-2-yl)acetamide]	10 to 100 nM	≥ 1000 nM	–	–
CC(=O)Nc1cc(Nc2cccc(C(C)(F)F)n2)c(-c2ccc(=O)n(C)n2)cn1 [Example 158, N-(4-((6-(1,1-difluoroethyl)pyridin-2-yl)amino)-5-(1-methyl-6-oxo-1,6-dihydropyridazin-3-yl)pyridin-2-yl)acetamide]	–	–	≤ 10 nM	IC50 (JH2 domain of human Tyk2; [2]): ≤ 10 nM
CCc1cc(Nc2cc(NC(C)=O)ncc2-c2cnc(CN3C[C@@H]4C[C@H]3CO4)cn2)nc(C(C)(F)F)n1 [Example 894, N-(5-(5-(((1S,4S)-2-oxa-5-azabicyclo[2.2.1]heptan-5-yl)methyl)pyrazin-2-yl)-4-((2-(1,1-difluoroethyl)-6-ethylpyrimidin-4-yl)amino)pyridin-2-yl)acetamide]	≤ 10 nM	≤ 10 nM	–	–
CC(=O)Nc1cc(Nc2cc(C)nc(C(C)(F)F)n2)c(-c2ccc(F)c(C#N)n2)cn1 [Example 633, N-(6-cyanO4′-((2-(1,1-difluoroethyl)-6-methylpyrimidin-4-yl)amino)-5-fluorO[2,3′-bipyridin]-6′-yl)acetamide]	–	–	≤ 10 nM	IC50 (JH2 domain of human Tyk2; [3]): ≤ 10 nM
COc1cnc(NC(C)=O)cc1Nc1cc(OC2CC(F)(F)C2)nc(C(C)(F)F)n1 [Example 460, N-(4-((6-(3,3-difluorocyclobutoxy)-2-(1,1-difluoroethyl)pyrimidin-4-yl)amino)-5-methoxypyridin-2-yl)acetamide]	–	–	10 to 100 nM	IC50 (JH2 domain of human Tyk2; [3]): ≤ 10 nM
